# Results as given in ChEMBL document CHEMBL1158298, “Syringin 4-O-beta-glucoside, a new phenylpropanoid glycoside, and costunolide, a nitric oxide synthase inhibitor, from the stem bark of Magnolia sieboldii” (J Nat Prod, 1996).
# Tests used:
# Type in all cases: cell-based
# J774.1 [1] = test: Inhibition of nitric oxides synthase in mouse J774.1 cells assessed as inhibition of LPS-induced NO release at 100 ug/mL after 48 hrs by Griess assay relative to control
# [2] = Cytotoxicity against mouse J774.1 cells assessed as cell viability after 48 hrs by MTT assay; conditions: read-out: Activity
# J774.1 [3] = test: Inhibition of nitric oxides synthase in mouse J774.1 cells assessed as inhibition of LPS-induced NO release at 1 ug/mL after 48 hrs by Griess assay relative to control
Structure (SMILES),inhibition (J774.1 [1]),viability at 48 h [2],inhibition (J774.1 [3])
COc1cc(/C=C/CO)cc(OC)c1O[C@@H]1O[C@H](CO)[C@@H](O)[C@H](O)[C@H]1O,12.3%,–,–
C[C@H]1O[C@H](O[C@@H]2[C@@H](O)[C@H](OCCc3ccc(O)c(O)c3)O[C@H](CO[C@H]3O[C@@H](CO)[C@H](O)[C@@H](O)[C@@H]3O)[C@H]2OC(=O)/C=C/c2ccc(O)c(O)c2)[C@@H](O)[C@@H](O)[C@@H]1O,10.4%,–,–
C=C1C(=O)O[C@@H]2/C=C(\C)CC/C=C(\C)CC[C@@H]12 [COSTUNOLIDE],94.6%,92%,50.3%
COc1cc(/C=C/CO)cc(OC)c1O[C@@H]1O[C@H](CO)[C@@H](O[C@@H]2O[C@H](CO)[C@@H](O)[C@H](O)[C@H]2O)[C@H](O)[C@H]1O,22.3%,–,–
